Where two headings read alike, the source gives them in different places.
Legend:
[1] = target: T1, SHP2 E76A protein (Homo sapiens, UniProt Q06124, E76A); assay: SHP2 enzyme activity inhibition test (DiFMUP substrate, fluorescence); format: biochemical; conditions: 50 ng SHP2 E76A, 20 min with compound, then 10 uM DiFMUP 20 min at room temperature
T1 sequence (Q06124 1-593 E76A): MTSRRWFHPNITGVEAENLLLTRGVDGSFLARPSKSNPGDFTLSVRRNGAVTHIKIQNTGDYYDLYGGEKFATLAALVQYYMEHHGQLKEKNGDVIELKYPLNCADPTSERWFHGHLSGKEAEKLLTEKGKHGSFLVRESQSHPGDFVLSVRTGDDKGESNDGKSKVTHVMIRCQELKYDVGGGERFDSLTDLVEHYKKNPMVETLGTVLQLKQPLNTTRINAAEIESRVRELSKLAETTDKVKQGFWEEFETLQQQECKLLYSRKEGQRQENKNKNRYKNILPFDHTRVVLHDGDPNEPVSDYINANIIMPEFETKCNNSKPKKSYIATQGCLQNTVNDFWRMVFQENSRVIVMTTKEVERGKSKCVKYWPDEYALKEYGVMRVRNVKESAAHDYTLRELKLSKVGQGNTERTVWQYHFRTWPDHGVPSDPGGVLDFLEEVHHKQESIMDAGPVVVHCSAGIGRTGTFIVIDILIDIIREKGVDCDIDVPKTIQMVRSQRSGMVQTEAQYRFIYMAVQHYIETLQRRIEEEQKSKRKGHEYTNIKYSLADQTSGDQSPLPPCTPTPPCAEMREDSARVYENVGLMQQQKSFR

[2] = system: MV4-11 cells; assay: MV4-11 cell proliferation inhibition experiment (CellTiter-Glo); format: cell-based; conditions: Homo sapiens, read-out: Cell proliferation inhibition activity
Description: The number of living cells in the culture was determined by quantitative determination of intracellular ATP using CellTiter-Glo® Luminescent Cell Viability Assay kit.
In the first step, MV4-11 cells were inoculated into 96-well plates with a density of 2500 cells per well and a volume of 100 μL per well. The plates were placed in 37° C., 5% carbon dioxide incubator overnight.
In the second step, cells were treated with compounds. The compounds to be tested were diluted 3 times, and 8 concentration gradients were set up. Each well was added with a certain volume of DMSO or the compound to be tested, and each concentration was tested in 2 replicates, and the final concentration of DMSO was 0.5%. The plates were placed in 37° C., 5% carbon dioxide incubator for 72 h.
In the third step, cell viability of the control groups and the treatment groups was determined using CellTiter-Glo® Luminescent Cell Viability Assay kit (Promega, G7570). Each well was added with 50 uL CellTiter-Glo. The culture was mixed well, and incubated at room temperature for 10 min. Signals were read using EnSpire (Perkin Elmer). Inhibition percentages (%) were calculated by the following formula:
Inhibition percentage (%)=(1−signal value of compound treatment group/signal value of DMSO treatment group)*100.

[3] = Pharmacokinetics experiment, intragastric single dose; format: in vivo; conditions: mouse, plasma, male mice, oral administration dosage 5 mg/Kg; for half-life: read-out: Half-life T1/2 (converted); for Cmax: read-out: Maximum plasma concentration Cmax; for AUC: read-out: Plasma exposure AUC
Description: Pharmacokinetics of the compound of the disclosure was determined. The following method was used to determine the pharmacokinetic parameters of the compound of the disclosure. Healthy male adult mice were used in the study. Each group was intragastrically administered with a single dose of 5-100 mg/kg. Fasting lasted from 10 hours before administration to 4 hours after administration. Blood samples were collected at different time points after administration and the compound content in plasma was determined by LC-MS/MS. The relationship between plasma concentration and time was analyzed by professional software (winnonlin), and the pharmacokinetic parameters of the compounds were calculated. According to Table 3, the compounds of the disclosure have excellent pharmacokinetic properties.

[4] = MV4-11 cells, 72 h, CellTiter-Glo

Row | Structure (SMILES) | IC50 [1] [nM] | IC50 [2, 4] [nM] | further results
1 | N[C@@H]1c2cccnc2CC12CCN(c1ncc(Sc3ccnc4c3CCO4)c3nccn13)CC2 [Compound 1] | 11 |  | IC50 ([2]; MV4-11, 72 h): 68 nM
2 | Nc1nccc(Sc2cnc(N3CCC4(CC3)Cc3ccccc3[C@H]4N)n3cnnc23)c1Cl [Compound 2] | 4 | 11 | 
3 | Nc1nccc(Sc2cnc(N3CCC4(CC3)Cc3ncccc3[C@H]4N)n3cnnc23)c1Cl [Compound 3, (S)-1′-(8-((2-amino-3-chloropyridin-4-yl)thio)-[1,2,4]triazolo[4,3-c]pyrimidin-5-yl)-5,7-dihydrospiro[cyclopenta[b]pyridine-6,4′-piperidine]-5-amine] | 11 | 99 | 
4 | Nc1nccc(Sc2cnc(N3CCC4(CC3)Cc3ccccc3[C@H]4N)n3ccnc23)c1Cl [Compound 4, (S)-1′-(8-((2-amino-3-chloropyridin-4-yl)thio)imidazolo[1,2-c]pyrimidin-5-yl)-1,3-dihydrospirolindene-2,4′-piperidinel-1-amine] | 7 | 7 | bioavailability [3]: 34%; half-life [3]: 5.4 h; Cmax [3]: 7 µM; AUC [3]: 29 µM·h
5 | CNc1nccc(Sc2cnc(N3CCC4(CC3)Cc3ncccc3[C@H]4N)n3ccnc23)c1Cl [Compound 5, (S)-1′-(8-((3-chloro-2-(methylamino)pyridin-4-yl)thio)imidazo[1,2-c]pyrimidin-5-yl)-5,7-dihydrospiro[cyclopenta[b]pyridine-6,4′-piperidine]-5-amine] | 5 |  | IC50 ([2]; MV4-11, 72 h): 6 nM
6 | Nc1nccc(Sc2cnc(N3CCC4(CC3)Cc3ncccc3[C@H]4N)n3ccnc23)c1Cl [Compound 6, (S)-1′-(8-((2-amino-3-chloropyridin-4-yl)thio)imidazo[1,2-c]pyrimidin-5-yl)-5,7-dihydrospiro[cyclopenta[b]pyridine-6,4′-piperidine]-5-amine] | 6 | 4 | bioavailability [3]: 37%; half-life [3]: 3.1 h; Cmax [3]: 6 µM; AUC [3]: 35 µM·h
7 | Nc1nccc(Sc2cnc(N3CCC4(CC3)Cc3ccncc3[C@H]4N)n3cnnc23)c1Cl [Compound 7, (5)-1′-(8-((2-amino-3-chloropyridin-4-yl)thio)-[1,2,4]triazolo[4,3-c]pyrimidin-5-yl)-5,7-dihydrospiro[cyclopenta[c]pyridine-6,4′-piperidine]-7-amine] | 3 | 29 | bioavailability [3]: 98%; half-life [3]: 3 h; Cmax [3]: 7.5 µM; AUC [3]: 43 µM·h
8 | Nc1nccc(Sc2cnc(N3CCC4(CC3)Cc3ccncc3[C@H]4N)n3ccnc23)c1Cl [Compound 8, (S)-1′-(8-((2-amino-3-chloropyridin-4-yl)thio)imidazo[1,2-c]pyrimidin-5-yl)-5,7-dihydrospiro[cyclopenta[c]pyridine-6,4′-piperidine]-7-amine] | 10 | 33 | 
9 | N[C@@H]1c2ncccc2CC12CCN(c1ncc(Sc3ccnc(Cl)c3Cl)c3nncn13)CC2 [Compound 9, (S)-1′-(8-(2,3-dichloropyridin-4-yl)thio-[1,2,4]-triazolo[4,3-c]pyrimidin-5-yl)-5,7-dihydrospiro[cyclopenta[b]pyridine-6,4′-piperidine]-7-amine] | 7 |  | IC50 ([2]; MV4-11, 72 h): 60 nM
10 | Nc1nccc(Sc2cnc(N3CCC4(CC3)Cc3cccnc3[C@H]4N)n3cnnc23)c1Cl [Compound 11, (S)-1′-(8-((2-amino-3-chloropyridin-4-yl)thio)-[1,2,4]triazolo[4,3-c]pyrimidin-5-yl)-5,7-dihydrospiro[cyclopenta[b]pyridine-6,4′-piperidine]-7-amine] | 1 | 30 | 
11 | Nc1nccc(Sc2cnc(N3CCC4(CC3)Cc3ccc(F)cc3[C@H]4N)n3cnnc23)c1Cl [Compound 12, (S)-1′-(8-((2-amino-3-chloropyridin-4-yl)thio)-[1,2,4]triazolo[4,3-c]pyrimidin-5-yl)-6-fluoro-1,3-dihydrospiro[indene-2,4′-piperidine]-1-amine] | 2 | 30 | 
12 | Nc1nccc(Sc2cnc(N3CCC4(CC3)Cc3ccc(F)cc3[C@H]4N)n3ccnc23)c1Cl [Compound 13, (S)-1′-(8-((2-amino-3-chloropyridin-4-yl)thio)imidazo[1,2-c]pyrimidin-5-yl)-6-fluoro-1,3-dihydrospirolindene-2,4′-piperidinel-1-amine] | 1 | 1 | 
13 | Nc1nccc(Sc2cnc(N3CCC4(CC3)Cc3cnccc3[C@H]4N)n3ccnc23)c1Cl [Compound 14, (S)-1′-(8-((2-amino-3-chloropyridin-4-yl)thio)imidazo[1,2-c]pyrimidin-5-yl)-5,7-dihydrospiro[cyclopenta[c]pyridine-6,4′-piperidine]-5-amine] | 8 | 36 | 
14 | Nc1nccc(Sc2cnc(N3CCC4(CC3)Cc3cnccc3[C@H]4N)n3cnnc23)c1Cl [Compound 15, (S)-1′-(8-((2-amino-3-chloropyridin-4-yl)thio)-[1,2,4]triazolo[4,3-c]pyrimidin-5-yl)-5,7-dihydrospiro[cyclopenta[c]pyridine-6,4′-piperidine]-5-amine] | 3 | 94 | 
15 | Nc1nccc(Sc2cnc(N3CCC4(CC3)Cc3c(O)cccc3[C@H]4N)n3cnnc23)c1Cl [Compound 16, (S)-1-amino-1′-(8-((2-amino-3-chloropyridin-4-yl)thio)-[1,2,4]triazolo[4,3-c]pyrimidin-5-yl)-1,3-dihydrospiro[indene-2,4′-piperidin]-4-ol] | 2 |  | IC50 ([2]; MV4-11, 72 h): 52 nM
16 | N#Cc1cccc2c1CC1(CCN(c3ncc(Sc4ccnc(N)c4Cl)c4nncn34)CC1)[C@@H]2N [Compound 17, (S)-1-amino-1′-(8-((2-amino-3-chloropyridin-4-yl)thio)-[1,2,4]triazolo[4,3-c]pyrimidin-5-yl)-1,3-dihydrospiro[indene-2,4′-piperidine]-4-nitrile] | 10 | 35 | 
17 | COc1cccc2c1CC1(CCN(c3ncc(Sc4ccnc(N)c4Cl)c4nncn34)CC1)[C@@H]2N [Compound 19, (S)-1′-(8-((2-amino-3-chloropyridin-4-yl)thio)-[1,2,4]triazolo[4,3-c]pyrimidin-5-yl)-4-methoxy-1,3-dihydrospiro[indene-2,4′-piperidine]-1-amine] | 7 | 1 | 
18 | Nc1nccc(Sc2cnc(N3CCC4(CC3)Cc3nccnc3[C@H]4N)n3cnnc23)c1Cl [Compound 20, (S)-1′-(8-((2-amino-3-chloropyridin-4-yl)thio)-[1,2,4]triazolo[4,3-c]pyrimidin-5-yl)-5,7-dihydrospiro[cyclopenta[b]pyrazine-6,4′-piperidine]-5-amine] | 6 |  | 
19 | N[C@@H]1c2ncccc2CC12CCN(c1ncc(Sc3cccnc3C(F)(F)F)c3nncn13)CC2 [Compound 21, (S)-1′-(8-((2-(trifluoromethyl)pyridin-3-yl)thio)-[1,2,4]-triazolo[4,3-c]pyrimidin-5-yl)-5,7-dihydrospiro[cyclopenta[b]pyridine-6,4′-piperidine]-7-amine] | 11 |  | 
20 | Nc1nccc(Sc2cnc(N3CCC4(CC3)Cc3sc(Cl)nc3[C@H]4N)n3ccnc23)c1Cl [Compound 22] | 9 |  | 
21 | N[C@@H]1c2cccnc2CC12CCN(c1ncc(Sc3ccnc4[nH]ncc34)c3nccn13)CC2 [Compound 23] | 9 |  | 
22 | C[C@@H]1OCC2(CCN(c3ncc(Sc4ccnc(N)c4Cl)n4nccc34)CC2)[C@@H]1N [Positive control aa, reference compound] | 26 | 423 | 
